The values below come from the supplement of paper PMC6045584.

Compound in assay [1]: Cn1c(=O)n(-c2ccc(C(C)(C)C#N)cc2)c2c3cc(-c4cnc5ccccc5c4)ccc3ncc21 [BEZ-235]
Description: surviving fraction relative to DMSO-only wells; higher = less growth inhibition. Conditions: exposure time: 5 days. The gist of the method: (§1)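 In 384-well plates, 250–500 log-phase tumour cells per well were given 24 hours before five days of continuous exposure to inhibitors at 0.5, 1, 5, 10, 50, 100, 500 and 1000 nM. Surviving fraction is luminescence from CellTiter-Glo, normalised to the median of wells containing DMSO alone. Reading took place after 10 minutes at room temperature.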

Compound in assay [2]: O=C(CCCCCCC(=O)Nc1ccccc1)NO [VORINOSTAT]
The description is as above. The conditions noted are these: exposure time: 5 days. A digest of the protocol:
as §1

Compound in assay [3]: COc1ccc(-c2cc3c(C)nc(N)nc3n([C@H]3CC[C@H](OCCO)CC3)c2=O)cn1
Kind of assay: area under dose-response curve of surviving fraction (unscaled, Aref=0) (surviving fraction x log10(nM)); higher = more resistant. Conditions: exposure time: 5 days; dose range 0.5-1000 nM. The gist of the method: (§2)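 Each tumour cell line was screened three times in 384-well plates, receiving eight inhibitor concentrations from 0.5 to 1000 nM for five days. CellTiter-Glo luminescence gave viability, normalised to DMSO-only wells. Using the drc R package, surviving fractions were fitted with 3-parameter logistic dose-response curves, and the unscaled activity area over log10 dose (Aref = 0) was taken as the area under the curve.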

Compound in assay [4]: COc1cc2nccc(Oc3ccc(NC(=O)NC4CC4)c(Cl)c3)c2cc1C(N)=O [LENVATINIB]
The assay is described as above. The conditions noted are these: exposure time: 5 days; dose range 0.5-1000 nM. A digest of the protocol: as §2

Compound in assay [5]: C=CCn1c(=O)c2cnc(Nc3ccc(N4CCN(C)CC4)cc3)nc2n1-c1cccc(C(C)(C)O)n1 [MK-1775]
The assay is described as above. The conditions noted are these: exposure time: 5 days; dose range 0.5-1000 nM. The gist of the method: as §2

Compound in assay [6]: CCc1cc(Nc2nccc(-c3c(-c4ccc(OC)c(C(=O)Nc5c(F)cccc5F)c4)nc4ccccn34)n2)c(OC)cc1N1CCC(N2CCN(S(C)(=O)=O)CC2)CC1
The description is as above. The conditions noted are these: exposure time: 5 days; dose range 0.5-1000 nM. A digest of the protocol: as §2

± gives the standard deviation of the averaged measurements.

For the test system HCC38 BREAST, the surviving fraction in assay [1] (0.5 nM) stood at 1.33 ± 0.21; in assay [1] (1 nM) it was 1.21 ± 0.094; in assay [1] (5 nM), 1.19 ± 0.037; in assay [1] (10 nM), 1.2 ± 0.1; in assay [1] (50 nM), 0.862 ± 0.013; in assay [1] (100 nM) it was 0.666 ± 0.035. Besides, the surviving fraction in assay [1] (500 nM) came to 0.291 ± 0.041; in assay [1] (1000 nM), 0.278 ± 0.054; in assay [2] (0.5 nM), 1.25 ± 0.035; in assay [2] (1 nM), 1.25 ± 0.028; in assay [2] (5 nM), 1.27 ± 0.15; in assay [2] (10 nM), 1.24 ± 0.097. Moreover, the surviving fraction in assay [2] (50 nM) was 1.42 ± 0.26; in assay [2] (100 nM) it was 1.23 ± 0.21; in assay [2] (500 nM), 1.06 ± 0.066; in assay [2] (1000 nM), 0.633 ± 0.11. Moreover, the “area under dose-response curve” value in assay [3] is 2.96; in assay [4], 3.98; in assay [5], 2.33.

For the test system HMLE3 BREAST, the surviving fraction turned out to be 1.03 ± 0.092 in assay [1] (0.5 nM); 0.966 ± 0.069 in assay [1] (1 nM); 0.961 ± 0.036 in assay [1] (5 nM); 0.929 ± 0.047 in assay [1] (10 nM); 0.582 ± 0.035 in assay [1] (50 nM); 0.315 ± 0.011 in assay [1] (100 nM). For the same test system, the surviving fraction in assay [1] (500 nM) came to 0.111 ± 0.0049; in assay [1] (1000 nM), 0.0777 ± 0.0078; in assay [2] (0.5 nM), 0.914 ± 0.067; in assay [2] (1 nM), 0.95 ± 0.038; in assay [2] (5 nM) it was 1.11 ± 0.03; in assay [2] (10 nM) it was 1.01 ± 0.095. Moreover, the surviving fraction in assay [2] (50 nM) is 1.04 ± 0.042; in assay [2] (100 nM), 1.09 ± 0.049; in assay [2] (500 nM), 0.982 ± 0.066; in assay [2] (1000 nM), 0.702 ± 0.073. The “area under dose-response curve” value in assay [3] stood at 2.08; in assay [4] it was 3.05; in assay [5], 2.87; in assay [6] it was 3.22.

For the test system G292 BONE, the surviving fraction in assay [1] (0.5 nM) was determined as 1.02 ± 0.026; in assay [1] (1 nM), 0.987 ± 0.027; in assay [1] (5 nM), 0.974 ± 0.025; in assay [1] (10 nM) it was 0.982 ± 0.036; in assay [1] (50 nM) it was 0.526 ± 0.032; in assay [1] (100 nM), 0.357 ± 0.0091. In addition, the surviving fraction in assay [1] (500 nM) stood at 0.202 ± 0.0096; in assay [1] (1000 nM), 0.163 ± 0.0093; in assay [2] (0.5 nM), 1.02 ± 0.027; in assay [2] (1 nM), 0.995 ± 0.029; in assay [2] (5 nM), 0.982 ± 0.046; in assay [2] (10 nM) it was 1.04 ± 0.047. For the same test system, the surviving fraction in assay [2] (50 nM) was 0.979 ± 0.04; in assay [2] (100 nM), 0.947 ± 0.036; in assay [2] (500 nM), 0.691 ± 0.032; in assay [2] (1000 nM), 0.511 ± 0.03. Further, the “area under dose-response curve” value in assay [3] was determined as 1.89; in assay [4], 2.62; in assay [5], 2.71; in assay [6], 3.33.

Take HS578T BREAST: the surviving fraction in assay [1] (0.5 nM) was determined as 1.13 ± 0.15; in assay [1] (1 nM) it was 0.972 ± 0.15; in assay [1] (5 nM), 0.997 ± 0.18; in assay [1] (10 nM), 0.817 ± 0.092; in assay [1] (50 nM), 0.46 ± 0.028; in assay [1] (100 nM), 0.384 ± 0.026. Further, the surviving fraction in assay [1] (500 nM) is 0.263 ± 0.027; in assay [1] (1000 nM), 0.257 ± 0.02; in assay [2] (0.5 nM), 0.951 ± 0.12; in assay [2] (1 nM) it was 0.888 ± 0.12; in assay [2] (5 nM), 0.922 ± 0.2; in assay [2] (10 nM), 0.989 ± 0.11. The surviving fraction in assay [2] (50 nM) is 0.945 ± 0.2; in assay [2] (100 nM), 0.821 ± 0.068; in assay [2] (500 nM), 0.569 ± 0.08; in assay [2] (1000 nM), 0.347 ± 0.034. Further, the results for the “area under dose-response curve” value in assay [3], in assay [5] and in assay [6] were 1.97, 1.96 and 2.93, respectively.

Turning to HS57T BREAST, the surviving fraction in assay [1] (0.5 nM) came out at 1.08 ± 0.039; in assay [1] (1 nM), 1.03 ± 0.033; in assay [1] (5 nM) it was 0.916 ± 0.027; in assay [1] (10 nM), 0.826 ± 0.016; in assay [1] (50 nM), 0.335 ± 0.021; in assay [1] (100 nM), 0.258 ± 0.0071. For the same test system, the surviving fraction was determined as 0.186 ± 0.009 in assay [1] (500 nM); 0.181 ± 0.011 in assay [1] (1000 nM); 0.935 ± 0.066 in assay [2] (0.5 nM); 0.992 ± 0.038 in assay [2] (1 nM); 1.01 ± 0.073 in assay [2] (5 nM); 1.071 ± 0.009 in assay [2] (10 nM). Besides, the surviving fraction is 1.04 ± 0.052 in assay [2] (50 nM), 0.995 ± 0.056 in assay [2] (100 nM), 0.804 ± 0.049 in assay [2] (500 nM) and 0.475 ± 0.026 in assay [2] (1000 nM).

With HMT3552 BREAST, the surviving fraction was 1.09 in assay [1] (0.5 nM); 1.05 in assay [1] (1 nM); 1.01 in assay [1] (5 nM); 1.02 in assay [1] (10 nM); 0.681 in assay [1] (50 nM); 0.466 in assay [1] (100 nM). The surviving fraction in assay [1] (500 nM) worked out at 0.186; in assay [1] (1000 nM), 0.191; in assay [2] (0.5 nM), 0.95; in assay [2] (1 nM) it was 1.12; in assay [2] (5 nM), 1.03; in assay [2] (10 nM) it was 1.01. Besides, the surviving fraction in assay [2] (50 nM) was found to be 1.09; in assay [2] (100 nM) it was 1.14; in assay [2] (500 nM), 0.656; in assay [2] (1000 nM), 0.329.

Consider HCC70 BREAST, for which the surviving fraction in assay [1] (0.5 nM) was 1.1 ± 0.04; in assay [1] (1 nM), 1.08 ± 0.075; in assay [1] (5 nM) it was 1.02 ± 0.082; in assay [1] (10 nM), 1.13 ± 0.1; in assay [1] (50 nM), 0.836 ± 0.1; in assay [1] (100 nM), 0.599 ± 0.068. In addition, the surviving fraction in assay [1] (500 nM) came to 0.347 ± 0.034; in assay [1] (1000 nM), 0.296 ± 0.025; in assay [2] (0.5 nM) it was 0.965 ± 0.061; in assay [2] (1 nM), 0.963 ± 0.042; in assay [2] (5 nM), 1 ± 0.054; in assay [2] (10 nM), 1.02 ± 0.11. Also, the surviving fraction in assay [2] (50 nM) was 1.06 ± 0.094; in assay [2] (100 nM), 0.973 ± 0.073; in assay [2] (500 nM) it was 0.766 ± 0.037; in assay [2] (1000 nM) it was 0.496 ± 0.049. The “area under dose-response curve” value was determined as 2.19 in assay [3], 3.79 in assay [4], 2.24 in assay [5] and 3.48 in assay [6].
